Experimental findings from ChEMBL document CHEMBL3044879, “Design, synthesis, and preliminary in vitro and in vivo pharmacological evaluation of 4-{4-[2-(4-(2-substitutedquinoxalin-3-yl)piperazin-1-yl)ethyl]phenyl}thiazoles as atypical antipsychotic agents” (Med Chem Res, 2013) are described below.

Each structure is given as a SMILES string. The source made the active and inactive calls. The rule behind the calls is not given here.

Series [1] concerns Mus musculus. As to the kind of experiment: Antagonist activity at mesolimbic dopaminergic D2 receptor in Swiss albino Mus musculus (mouse) assessed as inhibition of apomorphine-induced cage climbing behavior at 10 mg/kg, ip administered 1 hr prior to apomorphine challenge measured after 10 min relative to vehicle-treated control. It is filed as functional. The note with it: route intraperitoneal.

In series [2] the test system is Mus musculus. As to the kind of experiment: Antagonist activity at central serotonergic 5-HT2A receptor in Swiss albino Mus musculus (mouse) assessed as inhibition of quipazine meleate-induced head twiches at 10 mg/kg, ip administered 1 hr prior to quipazine meleate challenge measured after 30 to 40 min relative to vehicle-treated control. It is filed as functional. The note with it: route intraperitoneal.

Series [3] has as its system Mus musculus. As to the kind of experiment: Antagonist activity at mesolimbic dopaminergic D2 receptor in Swiss albino Mus musculus (mouse) assessed as inhibition of apomorphine-induced cage climbing behavior at 10 mg/kg, ip administered 1 hr prior to apomorphine challenge measured after 30 min relative to vehicle-treated control. It is filed as functional. The note with it: route intraperitoneal.

Series [4] has as its system Mus musculus. As to the kind of experiment: In vivo inhibition of 5-HT2A receptor in Swiss albino Mus musculus (mouse) at 10 mg/kg, ip relative to vehicle-treated control. The format is functional. The note with it: route intraperitoneal.
Series [5] concerns Mus musculus. As to the kind of experiment: Antagonist activity at nigrostriatal dopaminergic D2 receptor in Swiss albino Mus musculus (mouse) assessed as maximum average cataleptic time at 10 mg/kg, ip after 1 to 5 hr relative to vehicle-treated control. It is filed as organism-based. Set-up: dose 10 mg/kg, route intraperitoneal. The note with it: in vivo.
Series [6] has as its target D(2) dopamine receptor (Rattus norvegicus) (UniProt P61169). As to the kind of experiment: Displacement of [3H]spiperone from dopaminergic D2 receptor in Rattus norvegicus (rat) straitum membrane homogenates up to 1 uM after 60 min by liquid scintillation counting analysis. A general note: In a radioligand displacement assay an active substance lowers the binding of a labelled ligand.

The target in series [7] is 5-hydroxytryptamine receptor 2A (Rattus norvegicus) (UniProt P14842). As to the kind of experiment: Displacement of [3H]ketanserin from 5-HT2A receptor in Rattus norvegicus (rat) cortex membrane homogenates up to 1 uM after 90 min by liquid scintillation counting analysis.
In series [8] the test system is Mus musculus. As to the kind of experiment: Antagonist activity at mesolimbic dopaminergic D2 receptor in Swiss albino Mus musculus (mouse) assessed as inhibition of apomorphine-induced cage climbing behavior at 10 mg/kg, ip administered 1 hr prior to apomorphine challenge measured after 20 min relative to vehicle-treated control. The format is functional. The note with it: route intraperitoneal.

In series [9] the test system is Mus musculus. As to the kind of experiment: In vivo inhibition of dopaminergic D2 receptor in Swiss albino Mus musculus (mouse) at 10 mg/kg, ip relative to vehicle-treated control. It is filed as functional. The note with it: route intraperitoneal.
The subject of series [10] is Mus musculus. As to the kind of experiment: Selectivity ratio of inhibition of 5-HT2A receptor in Swiss albino Mus musculus (mouse) to inhibition of dopaminergic D2 receptor in Swiss albino Mus musculus (mouse) at 10 mg/kg, ip. It is filed as functional. The note with it: route intraperitoneal.
Series [11] has as its target 5-hydroxytryptamine receptor 2A (Rattus norvegicus) (UniProt P14842). As to the kind of experiment: Displacement of [3H]ketanserin from 5-HT2A receptor in Rattus norvegicus (rat) cortex membrane homogenates at 10 uM after 90 min by liquid scintillation counting analysis.
In series [12] the target is D(2) dopamine receptor (Rattus norvegicus) (UniProt P61169). As to the kind of experiment: Displacement of [3H]spiperone from D2 receptor in Rattus norvegicus (rat) straitum membrane homogenates at 100 uM after 60 min by liquid scintillation counting analysis.
Chain of D(2) dopamine receptor (Rattus norvegicus) (P61169 whole entry): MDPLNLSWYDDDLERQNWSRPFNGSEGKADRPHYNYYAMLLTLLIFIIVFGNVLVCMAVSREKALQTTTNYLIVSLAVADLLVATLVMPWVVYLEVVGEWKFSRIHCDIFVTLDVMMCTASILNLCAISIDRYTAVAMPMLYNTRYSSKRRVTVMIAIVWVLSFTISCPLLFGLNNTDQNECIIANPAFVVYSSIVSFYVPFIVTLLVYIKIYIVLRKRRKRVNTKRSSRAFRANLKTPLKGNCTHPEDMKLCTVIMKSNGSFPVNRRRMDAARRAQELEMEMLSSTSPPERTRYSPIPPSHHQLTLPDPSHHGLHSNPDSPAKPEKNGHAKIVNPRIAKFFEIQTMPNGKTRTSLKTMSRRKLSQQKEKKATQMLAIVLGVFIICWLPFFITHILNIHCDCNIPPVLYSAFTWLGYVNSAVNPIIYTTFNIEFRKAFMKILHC

Chain of 5-hydroxytryptamine receptor 2A (Rattus norvegicus) (P14842 whole entry): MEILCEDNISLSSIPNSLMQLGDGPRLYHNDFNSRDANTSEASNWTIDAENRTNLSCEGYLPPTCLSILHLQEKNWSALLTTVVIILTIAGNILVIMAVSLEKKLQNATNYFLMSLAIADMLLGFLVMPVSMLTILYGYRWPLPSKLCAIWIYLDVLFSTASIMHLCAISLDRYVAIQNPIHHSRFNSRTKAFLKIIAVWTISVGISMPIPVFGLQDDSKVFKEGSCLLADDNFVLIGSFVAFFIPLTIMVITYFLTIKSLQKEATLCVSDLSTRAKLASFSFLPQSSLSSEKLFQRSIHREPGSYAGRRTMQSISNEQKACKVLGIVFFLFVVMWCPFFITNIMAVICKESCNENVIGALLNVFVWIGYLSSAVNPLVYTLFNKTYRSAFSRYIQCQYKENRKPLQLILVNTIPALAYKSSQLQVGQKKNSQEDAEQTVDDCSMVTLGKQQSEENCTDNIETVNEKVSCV

As to `CNc1nc(-c2ccc(CCN3CCN(c4nc5ccccc5nc4OC)CC3)cc2)c(C)s1`, the inhibition in vivo at 10 mg/kg in the series on Mus musculus [1] turned out to be 60%; in the series on Mus musculus [2], 80%; in the series on Mus musculus [3], 70%; in the series with Mus musculus [4] it was 80%; in the series on Mus musculus [8], 50%. Further, in the series with Mus musculus [5], the Time came out at 3.12 s. Moreover, the inhibition entry in series [6] and in series [7] was “inactive” throughout. Further, the Imax in the series on Mus musculus [9] is on record as 70%. Moreover, in the series with Mus musculus [10], the Selectivity ratio was determined as 1.143.

Regarding `CNc1nc(-c2ccc(CCN3CCN(c4nc5ccccc5nc4Cl)CC3)cc2)c(C)s1`, the inhibition in vivo at 10 mg/kg in the series on Mus musculus [1] stood at 95%; in the series on Mus musculus [2], 81%; in the series on Mus musculus [3] it was 70%; with Mus musculus [4], 81%; in the series on Mus musculus [8] it was 95%. Further, the Time in the series with Mus musculus [5] stood at 8.12 s. The inhibition turned out to be 31% in [11] and 0% in series [12]. The inhibition result in series [6] and in series [7] was “inactive” in each case. Further, in the series with Mus musculus [9], the Imax stood at 95%. Also, the Selectivity ratio with Mus musculus [10] is recorded as 0.8526.

For `Cc1nc(-c2ccc(CCN3CCN(c4cnc5ccccc5n4)CC3)cc2)c(C)s1`, the inhibition in vivo at 10 mg/kg was 25% with Mus musculus [1]; 32% in the series with Mus musculus [2]; 70% with Mus musculus [3]; 32% in the series with Mus musculus [4]; 50% with Mus musculus [8]. The Time with Mus musculus [5] came out at 9.32 s. In addition, the inhibition entry in [6] and in series [7] was “inactive” each time. This molecule also yielded an Imax in the series with Mus musculus [9] of 70%. Further, the Selectivity ratio in the series with Mus musculus [10] came out at 0.4571.

Regarding `Oc1nc(-c2ccc(CCN3CCN(c4nc5ccccc5nc4Cl)CC3)cc2)cs1`, the inhibition in vivo at 10 mg/kg in the series on Mus musculus [1] came to 60%; in the series on Mus musculus [2], 58%; in the series on Mus musculus [3] it was 50%; in the series with Mus musculus [4], 58%; with Mus musculus [8] it was 60%. For the same molecule, in the series on Mus musculus [5], the Time is on record as 28.25 s. In addition, the inhibition in series [11] and in series [12] was 0% each time. Besides, the inhibition entry in [6] and in series [7] was “inactive” throughout. This molecule also gave an Imax in the series on Mus musculus [9] of 60%. In addition, the Selectivity ratio in the series with Mus musculus [10] was determined as 0.9667.

As for `COc1nc2ccccc2nc1N1CCN(CCc2ccc(-c3nc(C)sc3C)cc2)CC1`, the inhibition in vivo at 10 mg/kg in the series with Mus musculus [1] is 85%; in the series with Mus musculus [2], 65%; in the series with Mus musculus [3], 65%; in the series on Mus musculus [4], 65%; with Mus musculus [8] it was 70%. Also, the Time with Mus musculus [5] was found to be 11.25 s. Besides, the inhibition entry in [6] and in [7] was “inactive” throughout. The Imax in the series with Mus musculus [9] was 85%. In addition, the Selectivity ratio in the series on Mus musculus [10] is on record as 0.7647.

As for `COc1nc2ccccc2nc1N1CCN(CCc2ccc(-c3nc(N)sc3C)cc2)CC1`, the inhibition in vivo at 10 mg/kg with Mus musculus [1] turned out to be 65%; with Mus musculus [2], 60%; with Mus musculus [3], 65%; in the series on Mus musculus [4], 60%; in the series with Mus musculus [8], 80%. In the series with Mus musculus [5], the Time stood at 10.78 s. Further, the inhibition result in series [6] and in [7] was “inactive” in each case. For the same molecule, in the series on Mus musculus [9], the Imax turned out to be 80%. Moreover, the Selectivity ratio in the series with Mus musculus [10] was determined as 0.75.

As for `CNc1nc(-c2ccc(CCN3CCN(c4cnc5ccccc5n4)CC3)cc2)c(C)s1`, the inhibition in vivo at 10 mg/kg in the series on Mus musculus [1] was determined as 60%; with Mus musculus [2], 55%; in the series on Mus musculus [3] it was 65%; in the series on Mus musculus [4], 55%; in the series on Mus musculus [8], 75%. Further, the Time in the series with Mus musculus [5] came to 3.88 s. The inhibition entry in series [6] and in series [7] was “inactive” throughout. The molecule also registered an Imax in the series with Mus musculus [9] of 75%. Moreover, in the series on Mus musculus [10], the Selectivity ratio was 0.7333.

As usually defined, the inhibition in vivo is the relative decrease from the control value, in per cent. For orientation: inhibition means how much of the control response was suppressed.
